Results reported in US11001569B2, “6-membered heteroaromatic substituted cyanoindoline derivatives as NIK inhibitors” (Janssen Pharmaceutica NV, priority 2016, dated 2021).
Like-named read-outs stand apart in the source and are kept apart here.

Key:
[1] = test system: KMS12-BM (NIK WT) multiple myeloma cells; assay: Antiproliferative activity on KMS12-BM multiple myeloma cells (CellTiter-Glo); format: cell-based, human; details: 96 hr treatment, averaged values, read-out: KMS-12 Proliferation inhibition (IC50 (nM))
Procedure, shortened: (§1)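 Cells plated at 15000 (JJN3) or 20000 (KMS12BM) per well and treated 96 h at 37° C, 5% CO2, final DMSO 0.3%, 9-point 1:3 dilutions. Viability by CellTiter-Glo luminescence; time-zero blank subtracted, growth expressed as percent of untreated control.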

[2] = test system: JJN-3 (NIK translocated) multiple myeloma cells; assay: Antiproliferative activity on JJN-3 multiple myeloma cells (CellTiter-Glo); format: cell-based, human; details: JJN-3 (NIK translocated) cells, 96 hr treatment, averaged values, read-out: JJN-3 Proliferation inhibition (IC50 (nM))
Procedure, shortened: as §1

[3] = test system: P-IKKα levels in L363 (NIK translocated multiple myeloma) cells; assay: Effect of compounds on P-IKKα levels in L363 cells (Mesoscale sandwich immuno-assay); format: cell-based, human; details: 2 hr treatment, averaged values, read-out: Inhibition of pIKKα_L-363 (IC50 (nM))
Method: Effect of Compounds on P-IKKα Levels in L363 (NIK Translocated Multiple Myeloma) Cells
All compounds tested were dissolved in DMSO and further dilutions were made in culture medium. Final DMSO concentration was 1% (v/v) in cell assays. The human L363 cells (ATCC) were cultured in RPMI 1640 medium supplemented with GlutaMax and 10% fetal calf serum (PAA). Cells were routinely maintained at densities of 0.2×10^6 cells per ml-1×10^6 cells per ml at 37° C. in a humidified 5% CO2 atmosphere. Cells were passaged twice a week splitting back to obtain the low density. Cells were seeded in 96 well plates (Nunc 167008) at 2×10^6 per ml media in a volume of 75 μl per well plus 25 μl 1 μg/ml recombinant human B-cell activating factor (BAFF/BLyS/TNFSF13B). Seeded cells were incubated at 37° C. in a humidified 5% CO2 atmosphere for 24 hr. Drugs and/or solvents were added (20 μl) to a final volume of 120 μl. Following 2 hr treatment plates were removed from the incubator and cell lysis was achieved by the addition of 30 μl 5× lysis buffer followed by shaking on a plate shaker at 4° C. for 10 min. At the end of this incubation lysed cells were centrifuged at 800×g for 20 min at 4° C. and the lysate was assessed for P-IKK levels by sandwich immuno-assay carried out in anti-rabbit antibody coated Mesoscale plates. Within an experiment, the results for each treatment were the mean of 2 replicate wells. For initial screening purposes, compounds were tested using an 8 point dilution curve (serial 1:3 dilutions). […] The blank incubation value was subtracted from all control and sample values. To determine the IC50 a sigmoidal curve was fitted to the plot of % inhibition of control P-IKKα levels versus Log10 compound concentration.

[4] = target: recombinant human NF-kappaB-inducing Kinase (NIK/MAP3K14) (Homo sapiens, UniProt Q99558); assay: Inhibition of auto-phosphorylation of recombinant human NIK/MAP3K14 activity (AlphaScreen); format: biochemical; details: 25 microM ATP, averaged over all measurements on all batches
Sequence of recombinant human NF-kappaB-inducing Kinase (NIK/MAP3K14) (Q99558 whole entry): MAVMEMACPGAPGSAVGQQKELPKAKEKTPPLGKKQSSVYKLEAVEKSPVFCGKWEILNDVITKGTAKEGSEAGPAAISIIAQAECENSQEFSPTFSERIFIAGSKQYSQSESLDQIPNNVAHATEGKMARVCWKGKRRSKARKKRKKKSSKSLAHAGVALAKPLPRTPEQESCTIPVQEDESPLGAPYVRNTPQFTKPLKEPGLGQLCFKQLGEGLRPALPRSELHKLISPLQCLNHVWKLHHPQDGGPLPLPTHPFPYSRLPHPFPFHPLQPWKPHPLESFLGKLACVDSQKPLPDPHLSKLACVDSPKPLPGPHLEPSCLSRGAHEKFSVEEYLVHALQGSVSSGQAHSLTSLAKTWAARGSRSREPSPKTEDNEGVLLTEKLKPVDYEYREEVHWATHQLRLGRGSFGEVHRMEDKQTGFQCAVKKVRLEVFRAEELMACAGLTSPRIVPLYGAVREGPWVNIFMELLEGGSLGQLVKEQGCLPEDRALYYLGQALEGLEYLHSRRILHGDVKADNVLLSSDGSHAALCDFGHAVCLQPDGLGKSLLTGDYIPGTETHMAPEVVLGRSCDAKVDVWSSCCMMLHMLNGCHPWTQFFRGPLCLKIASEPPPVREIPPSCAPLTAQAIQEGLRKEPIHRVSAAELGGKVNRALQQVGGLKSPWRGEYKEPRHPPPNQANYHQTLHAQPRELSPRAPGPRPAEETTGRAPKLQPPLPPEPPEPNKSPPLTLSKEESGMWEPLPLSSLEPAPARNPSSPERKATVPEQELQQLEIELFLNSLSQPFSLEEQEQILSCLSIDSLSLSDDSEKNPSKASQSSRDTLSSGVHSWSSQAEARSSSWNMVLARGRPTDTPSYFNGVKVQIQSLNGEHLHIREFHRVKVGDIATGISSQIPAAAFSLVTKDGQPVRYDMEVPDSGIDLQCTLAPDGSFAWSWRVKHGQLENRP

Row | SMILES | IC50 ([1]; Homo sapiens, KMS-12-BM, 96 h) [nM] | IC50 ([2]; Homo sapiens, JJN-3, 96 h) [nM] | IC50 ([3]; Homo sapiens, L-363, 2 h) [nM] | IC50 [4] [nM] | melting point [°C] | IC50 [1] [nM] | IC50 [2] [nM] | IC50 [3] [nM]
1 | CNC(=O)c1cnc(CCC2CC2)c(Nc2nccc(-c3cc(C#N)c4c(c3)[C@@](C)(CO)CN4)n2)c1 [Compound 87] | > 10000 | 427 | 27.5 | 3.8 | – | – | – | –
2 | Cc1cc(Nc2nccc(-c3cc(C#N)c4c(c3)[C@@](C)(CO)CN4)n2)c(CCC2CC2)nc1P(C)(C)=O [Compound 96] | > 10000 | 65 | 1.1 | 2.2 | – | – | – | –
3 | Cc1nc(P(C)(C)=O)c(Cl)cc1Nc1nccc(-c2cc(C#N)c3c(c2)[C@@](C)(CO)CN3)n1 [Compound 90] | > 10000 | 5890 | 32.4 | 1.9 | – | – | – | –
4 | CC(C)Oc1ncc(C#N)cc1Nc1nccc(-c2cc(C#N)c3c(c2)[C@@](C)(CO)CN3)n1 [Compound 75] | > 10000 | > 10000 | 18.2 | 9.8 | – | – | – | –
5 | COCCCc1ccc(Nc2nccc(-c3cc(C#N)c4c(c3)[C@@](C)(CO)CN4)n2)c(OC)n1 [Compound 58] | > 10000 | 200 | ~17 | 6.9 | – | – | – | –
6 | COCCOc1nc(P(C)(C)=O)ccc1Nc1nccc(-c2cc(C#N)c3c(c2)[C@@](C)(CO)CN3)n1 [Compound 60] | > 10000 | 708 | 70.8 | 7.2 | – | – | – | –
7 | CNC(=O)c1cc(Nc2nccc(-c3cc(C#N)c4c(c3)[C@@](C)(CO)CN4)n2)c(=O)n(CC2CC2)c1 [Compound 25i] | > 10000 | 120 | 9.5 | 1.7 | – | – | – | –
8 | CC1(C)CNc2c(C#N)cc(-c3ccnc(Nc4cc(F)cn(CCN5CC(F)C5)c4=O)n3)cc21 [Compound 28i] | – | – | 21.4 | 7.6 | 235 | – | – | –
9 | Cc1cnc(CCC2CC2)c(Nc2nccc(-c3cc(C#N)c4c(c3)[C@@](C)(CO)CN4)n2)c1 [Compound 68] | 5130 | 98 | ~20 | 3.9 | – | – | – | –
10 | COc1nc(N(C)C)c(Cl)cc1Nc1nccc(-c2cc(C#N)c3c(c2)C(C)(C)CN3)n1 [Compound 99] | > 10000 | 708 | 275 | 123 | – | – | – | –
11 | COc1nc(C2CCOCC2)ncc1Nc1nccc(-c2cc(C#N)c3c(c2)[C@@](C)(CO)CN3)n1 [Compound 140] | > 10000 | 427 | 12 | 4.8 | – | – | – | –
12 | COCCNc1nc(OC)c(Nc2nccc(-c3cc(C#N)c4c(c3)C(C)(C)CN4)n2)cc1Cl [Compound 98] | > 10000 | 832 | 45.7 | 50.1 | – | – | – | –

The next lines start with the values.

Row | IC50 ([1]; Homo sapiens, KMS-12-BM, 96 h) [nM] | IC50 ([2]; Homo sapiens, JJN-3, 96 h) [nM] | IC50 ([3]; Homo sapiens, L-363, 2 h) [nM] | IC50 [4] [nM] | melting point [°C] | IC50 [1] [nM] | IC50 [2] [nM] | IC50 [3] [nM] | SMILES
13 | > 10000 | 417 | 46.8 | 28.2 | – | – | – | – | COc1nc(CC(C)C)c(Nc2nccc(-c3cc(C#N)c4c(c3)[C@@](C)(CO)CN4)n2)cc1C [Compound 161]
14 | – | – | 229 | 25.7 | 150 | – | – | – | Cc1ncc(C(=O)N2CCN(C)CC2)cc1Nc1nccc(-c2cc(C#N)c3c(c2)[C@@](C)(CO)CN3)n1 [Compound 166]
15 | > 10000 | 49 | 2.3 | 1.6 | – | – | – | – | Cc1cc(Nc2ncc(F)c(-c3cc(C#N)c4c(c3)[C@@](C)(CO)CN4)n2)c(C)cn1 [Compound 158]
16 | – | – | – | 7.4 | – | > 10000 | 12 | 6.9 | Cc1cnc(OC2CCN(C)CC2F)c(Nc2nccc(-c3cc(C#N)c4c(c3)[C@@](C)(CO)CN4)n2)c1 (mixture of isomers) [Compound 171]
17 | ~2190 | 26 | 3.9 | 4.1 | – | – | – | – | Cc1cc(Nc2nccc(-c3cc(C#N)c4c(c3)[C@@](C)(CO)CN4)n2)c(C)nc1OC1CCN(C)CC1 [Compound 172]
18 | – | – | 4 | 6.5 | 199 | – | – | – | Cc1cc(Nc2nccc(-c3cc(C#N)c4c(c3)[C@@](C)(CO)CN4)n2)c(C)nc1OC1CCOCC1 [Compound 174]
